Laboratory results as given in ChEMBL document CHEMBL1201862, “PubChem BioAssay data set” (2004).
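Exposure lasted 48 hours, with cells grown in 96-well plates and compounds tested at five concentrations. Abbreviation: GI50, concentration required for 50% inhibition of growth.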 Activity calls are given as the source filed them. Rule as the data show it: active = GI50 up to about 1.1 µM and inactive = higher.

Columns and labels:
Assay in all cases: NCI anticancer screen, dose series, 48 h
TK-10 = test system: TK-10
Hs-578T = test system: Hs-578T
MDA-MB-435 = test system: MDA-MB-435
SNB-75 = test system: SNB-75
MDA-MB-231 = test system: MDA-MB-231
UACC-62 = test system: UACC-62
OVCAR-3 = test system: OVCAR-3
RPMI-8226 = test system: RPMI-8226
A498 = test system: A498
786-0 = test system: 786-0
HOP-62 = test system: HOP-62
Malme-3M = test system: Malme-3M
HL-60 = test system: HL-60
SN12C = test system: SN12C
LOX IMVI = test system: LOX IMVI
RXF 393 = test system: RXF 393
PC-3 = test system: PC-3
HCT-15 = test system: HCT-15
SK-MEL-28 = test system: SK-MEL-28
SF-268 = test system: SF-268

SMILES | GI50 (TK-10) | GI50 (Hs-578T) | GI50 (MDA-MB-435) | GI50 (SNB-75) | GI50 (MDA-MB-231) | GI50 (UACC-62) | GI50 (OVCAR-3) | GI50 (RPMI-8226) | GI50 (A498) | GI50 (786-0) | GI50 (HOP-62) | GI50 (Malme-3M) | GI50 (HL-60) | GI50 (SN12C) | GI50 (LOX IMVI) | GI50 (RXF 393) | GI50 (PC-3) | GI50 (HCT-15) [µM] | GI50 (SK-MEL-28) | GI50 (SF-268)
NC(=O)N/N=C(/CC1C(=O)Oc2ccccc21)c1ccccc1O (stereo not given) | 53.8 µM (inactive) | > 100 µM (inactive) | 43.8 µM (inactive) | 41.3 µM (inactive) | > 100 µM (inactive) | 19.1 µM (inactive) | 78.2 µM (inactive) | 14.1 µM (inactive) | 49.3 µM (inactive) | 33.4 µM (inactive) | 29 µM (inactive) | > 100 µM (inactive) | 19.6 µM (inactive) | 83.6 µM (inactive) | 20.4 µM (inactive) | 29.6 µM (inactive) | > 100 µM (inactive) | 38.4 | 48.3 µM (inactive) | > 100 µM (inactive)
O=S(=O)(SC1=NCCN1)c1ccc2ccccc2c1 | 89.1 µM (inactive) | 35.6 µM (inactive) | 20.7 µM (inactive) | 25.2 µM (inactive) | 17.2 µM (inactive) | 30.1 µM (inactive) | 27.5 µM (inactive) | 26.4 µM (inactive) | 92.7 µM (inactive) | 28.1 µM (inactive) | 23.3 µM (inactive) | 72.6 µM (inactive) | 16.3 µM (inactive) | 24.4 µM (inactive) | 31.4 µM (inactive) | 24.3 µM (inactive) | 30.7 µM (inactive) | 25.1 | 34.8 µM (inactive) | 23.2 µM (inactive)
COC(=O)c1ccccc1NC(=O)C(=O)CC(=O)c1ccccc1NC1=CC(=O)C(=O)c2ccccc21 | 67.6 µM (inactive) | 7.45 µM (inactive) | 4.15 µM (inactive) | 17.5 µM (inactive) | 3.4 µM (inactive) | 8.87 µM (inactive) | 1.78 µM (inactive) | 2.64 µM (inactive) | > 56.2 µM (inactive) | 5.65 µM (inactive) | 22.7 µM (inactive) | 3.02 µM (inactive) | 1.55 µM (inactive) | 3.94 µM (inactive) | 1.68 µM (inactive) | 15.6 µM (inactive) | 10.9 µM (inactive) | 5.65 | 13.1 µM (inactive) | 5.96 µM (inactive)
S=c1nc(Nc2ccccc2)c2c3c(sc2[nH]1)CCCC3 | > 100 µM (inactive) | > 100 µM (inactive) | > 100 µM (inactive) | > 100 µM (inactive) | > 100 µM (inactive) | > 100 µM (inactive) | > 100 µM (inactive) | > 100 µM (inactive) | > 100 µM (inactive) | > 100 µM (inactive) | > 100 µM (inactive) | > 100 µM (inactive) | > 100 µM (inactive) | 56.4 µM (inactive) | > 100 µM (inactive) | > 100 µM (inactive) | > 100 µM (inactive) | > 100 | > 100 µM (inactive) | > 100 µM (inactive)
CCOCC(=O)N[C@H]1CCc2cc(OC)c(OC)c(OC)c2-c2ccc(OC)c(=O)cc21 | 2.46 µM (inactive) | 0.0203 µM (active) | 0.0123 µM (active) | < 0.0191 µM (active) | < 0.0145 µM (active) | 0.0153 µM (active) | 0.0148 µM (active) | 0.0778 µM (active) | 0.0229 µM (active) | 0.0199 µM (active) | 0.0232 µM (active) | 0.0229 µM (active) | < 0.01 µM (active) | 0.0239 µM (active) | < 0.0125 µM (active) | 0.0811 µM (active) | < 0.0154 µM (active) | 0.0865 | 2.23 µM (inactive) | 0.0233 µM (active)
CC1CCCc2c(C#N)c(N)nc(-c3ccc(Cl)cc3)c21 (stereo not given) | 29.8 µM (inactive) | 32.4 µM (inactive) | 23.8 µM (inactive) | 22.4 µM (inactive) | 22.1 µM (inactive) | 15.8 µM (inactive) | 12.6 µM (inactive) | 11.1 µM (inactive) | 68.4 µM (inactive) | 15.1 µM (inactive) | 5.73 µM (inactive) | 18.7 µM (inactive) | 18.1 µM (inactive) | 20.3 µM (inactive) | 16.6 µM (inactive) | 6.87 µM (inactive) | 4.68 µM (inactive) | 11.7 | 27.6 µM (inactive) | 31.1 µM (inactive)
CC(=O)CC(=O)N1CCSC1=S | > 10 µM (inactive) | > 10 µM (inactive) | > 10 µM (inactive) | > 10 µM (inactive) | > 10 µM (inactive) | > 10 µM (inactive) | > 10 µM (inactive) | > 10 µM (inactive) | > 10 µM (inactive) | > 10 µM (inactive) | > 10 µM (inactive) | > 10 µM (inactive) | > 10 µM (inactive) | > 10 µM (inactive) | > 10 µM (inactive) | > 10 µM (inactive) | > 10 µM (inactive) | > 10 | > 10 µM (inactive) | > 10 µM (inactive)
